Key:
Assay in all cases: relative viability (nuclei count vs DMSO), 5 days (fraction); higher = more cells survive
ABC-1 = test system: ABC-1
How it was run: (§1)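 One day after seeding in 1536-well plates, lung cancer cell lines were dosed by pin tool. Dosing was either single-drug or a fixed anchor-drug dose plus five library-drug doses (not always all listed) in √10 steps. After 5 days, nuclei were stained in one fix-and-stain step and counted on 4× images, and relative viability is the nuclei count of treated wells over that of vehicle wells, given as the median of duplicate plates.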

CAL-12T = test system: CAL-12T
How it was run: as §1

ChaGo-K-1 = test system: ChaGo-K-1
How it was run: as §1

HCC-44 = test system: HCC-44
How it was run: as §1

HCC-827 = test system: HCC-827
How it was run: as §1

LCLC-103H = test system: LCLC-103H
How it was run: as §1

LU99A = test system: LU99A
How it was run: as §1

LXF-289 = test system: LXF-289
How it was run: as §1

NCI-H1395 = test system: NCI-H1395
How it was run: as §1

NCI-H1666 = test system: NCI-H1666
How it was run: as §1

NCI-H1755 = test system: NCI-H1755
How it was run: as §1

NCI-H1792 = test system: NCI-H1792
How it was run: as §1

NCI-H1793 = test system: NCI-H1793
How it was run: as §1

NCI-H1944 = test system: NCI-H1944
How it was run: as §1

NCI-H2126 = test system: NCI-H2126
How it was run: as §1

NCI-H2347 = test system: NCI-H2347
How it was run: as §1

NCI-H3122 = test system: NCI-H3122
How it was run: as §1

NCI-H322M = test system: NCI-H322M
How it was run: as §1

NCI-H358 = test system: NCI-H358
How it was run: as §1

NCI-H520 = test system: NCI-H520
How it was run: as §1

RERF-LC-KJ = test system: RERF-LC-KJ
How it was run: as §1

SK-LU-1 = test system: SK-LU-1
How it was run: as §1

Molecule `Cc1cn(-c2cc(NC(=O)c3ccc(C)c(Nc4nccc(-c5cccnc5)n4)c3)cc(C(F)(F)F)c2)cn1` [Nilotinib] + N=C(N)NC(=N)NCCc1ccccc1 [Phenformin] (partner 250 µM) has a relative viability (ABC-1; first compound 0.001 µM) of 0.219, a relative viability (ABC-1; first compound 0.003162 µM) of 0.243 and a relative viability (ABC-1; first compound 0.01 µM) of 0.259. The relative viability (ABC-1; first compound 0.03162 µM) was 0.249, the relative viability (ABC-1; first compound 0.1 µM) was 0.264 and the relative viability (CAL-12T; first compound 0.001 µM) was 0.554. It also gave a relative viability (CAL-12T; first compound 0.003162 µM) of 0.563, a relative viability (CAL-12T; first compound 0.01 µM) of 0.701 and a relative viability (CAL-12T; first compound 0.03162 µM) of 0.436. It also gave a relative viability (CAL-12T; first compound 0.1 µM) of 0.47, a relative viability (ChaGo-K-1; first compound 0.001 µM) of 0.469 and a relative viability (ChaGo-K-1; first compound 0.003162 µM) of 0.442. The relative viability (ChaGo-K-1; first compound 0.01 µM) was 0.473, the relative viability (ChaGo-K-1; first compound 0.03162 µM) was 0.394 and the relative viability (ChaGo-K-1; first compound 0.1 µM) was 0.315. It also gave a relative viability (HCC-44; first compound 0.001 µM) of 0.154, a relative viability (HCC-44; first compound 0.003162 µM) of 0.145 and a relative viability (HCC-44; first compound 0.01 µM) of 0.186. It also gave a relative viability (HCC-44; first compound 0.03162 µM) of 0.179, a relative viability (HCC-44; first compound 0.1 µM) of 0.166 and a relative viability (HCC-827; first compound 0.003162 µM) of 0.436. It also gave a relative viability (HCC-827; first compound 0.01 µM) of 0.384, a relative viability (HCC-827; first compound 0.03162 µM) of 0.438 and a relative viability (HCC-827; first compound 0.1 µM) of 0.384. For the same molecule, the relative viability (LCLC-103H; first compound 0.001 µM) was 0.326, the relative viability (LCLC-103H; first compound 0.003162 µM) was 0.307 and the relative viability (LCLC-103H; first compound 0.01 µM) was 0.338. For the same molecule, the relative viability (LCLC-103H; first compound 0.03162 µM) was 0.333, the relative viability (LCLC-103H; first compound 0.1 µM) was 0.288 and the relative viability (LU99A; first compound 0.001 µM) was 0.697. The relative viability (LU99A; first compound 0.003162 µM) was 0.907, the relative viability (LU99A; first compound 0.01 µM) was 0.798 and the relative viability (LU99A; first compound 0.03162 µM) was 0.611. For the same molecule, the relative viability (LU99A; first compound 0.1 µM) was 0.483, the relative viability (LXF-289; first compound 0.001 µM) was 0.545 and the relative viability (LXF-289; first compound 0.003162 µM) was 0.562. The relative viability (LXF-289; first compound 0.01 µM) was 0.558, the relative viability (LXF-289; first compound 0.03162 µM) was 0.506 and the relative viability (LXF-289; first compound 0.1 µM) was 0.454. It also gave a relative viability (NCI-H1395; first compound 0.001 µM) of 0.453, a relative viability (NCI-H1395; first compound 0.003162 µM) of 0.403 and a relative viability (NCI-H1395; first compound 0.01 µM) of 0.49. It also gave a relative viability (NCI-H1395; first compound 0.03162 µM) of 0.43, a relative viability (NCI-H1395; first compound 0.1 µM) of 0.415 and a relative viability (NCI-H1666; first compound 0.001 µM) of 0.605. For the same molecule, the relative viability (NCI-H1666; first compound 0.003162 µM) was 0.615, the relative viability (NCI-H1666; first compound 0.01 µM) was 0.578 and the relative viability (NCI-H1666; first compound 0.03162 µM) was 0.545. It also gave a relative viability (NCI-H1666; first compound 0.1 µM) of 0.652, a relative viability (NCI-H1755; first compound 0.001 µM) of 0.589 and a relative viability (NCI-H1755; first compound 0.003162 µM) of 0.616. The relative viability (NCI-H1755; first compound 0.01 µM) was 0.564, the relative viability (NCI-H1755; first compound 0.03162 µM) was 0.534 and the relative viability (NCI-H1755; first compound 0.1 µM) was 0.486. For the same molecule, the relative viability (NCI-H1792; first compound 0.001 µM) was 0.277, the relative viability (NCI-H1792; first compound 0.003162 µM) was 0.318 and the relative viability (NCI-H1792; first compound 0.01 µM) was 0.164. The relative viability (NCI-H1792; first compound 0.03162 µM) was 0.203, the relative viability (NCI-H1792; first compound 0.1 µM) was 0.259 and the relative viability (NCI-H1793; first compound 0.001 µM) was 0.36. For the same molecule, the relative viability (NCI-H1793; first compound 0.003162 µM) was 0.363, the relative viability (NCI-H1793; first compound 0.01 µM) was 0.357 and the relative viability (NCI-H1793; first compound 0.03162 µM) was 0.196. It also gave a relative viability (NCI-H1793; first compound 0.1 µM) of 0.232, a relative viability (NCI-H1944; first compound 0.001 µM) of 0.193 and a relative viability (NCI-H1944; first compound 0.003162 µM) of 0.216. The relative viability (NCI-H1944; first compound 0.01 µM) was 0.222, the relative viability (NCI-H1944; first compound 0.03162 µM) was 0.181 and the relative viability (NCI-H2126; first compound 0.001 µM) was 0.546. For the same molecule, the relative viability (NCI-H2126; first compound 0.003162 µM) was 0.535, the relative viability (NCI-H2126; first compound 0.01 µM) was 0.538 and the relative viability (NCI-H2126; first compound 0.03162 µM) was 0.534. The relative viability (NCI-H2126; first compound 0.1 µM) was 0.562, the relative viability (NCI-H2347; first compound 0.001 µM) was 0.386 and the relative viability (NCI-H2347; first compound 0.003162 µM) was 0.308. The relative viability (NCI-H2347; first compound 0.01 µM) was 0.551, the relative viability (NCI-H2347; first compound 0.03162 µM) was 0.277 and the relative viability (NCI-H2347; first compound 0.1 µM) was 0.327. It also gave a relative viability (NCI-H3122; first compound 0.001 µM) of 0.36, a relative viability (NCI-H3122; first compound 0.003162 µM) of 0.375 and a relative viability (NCI-H3122; first compound 0.01 µM) of 0.341. The relative viability (NCI-H3122; first compound 0.03162 µM) was 0.352, the relative viability (NCI-H3122; first compound 0.1 µM) was 0.309 and the relative viability (NCI-H322M; first compound 0.001 µM) was 0.781. It also gave a relative viability (NCI-H322M; first compound 0.003162 µM) of 0.702, a relative viability (NCI-H322M; first compound 0.01 µM) of 0.87 and a relative viability (NCI-H322M; first compound 0.03162 µM) of 0.741. The relative viability (NCI-H322M; first compound 0.1 µM) was 0.833, the relative viability (NCI-H358; first compound 0.001 µM) was 0.317 and the relative viability (NCI-H358; first compound 0.003162 µM) was 0.453. The relative viability (NCI-H358; first compound 0.01 µM) was 0.394, the relative viability (NCI-H358; first compound 0.03162 µM) was 0.259 and the relative viability (NCI-H358; first compound 0.1 µM) was 0.217. The relative viability (NCI-H520; first compound 0.001 µM) was 0.707, the relative viability (NCI-H520; first compound 0.01 µM) was 0.655 and the relative viability (NCI-H520; first compound 0.03162 µM) was 0.447. For the same molecule, the relative viability (NCI-H520; first compound 0.1 µM) was 0.428, the relative viability (RERF-LC-KJ; first compound 0.001 µM) was 0.406 and the relative viability (RERF-LC-KJ; first compound 0.003162 µM) was 0.449. It also gave a relative viability (RERF-LC-KJ; first compound 0.01 µM) of 0.43, a relative viability (RERF-LC-KJ; first compound 0.03162 µM) of 0.344 and a relative viability (RERF-LC-KJ; first compound 0.1 µM) of 0.453. The relative viability (SK-LU-1; first compound 0.001 µM) was 0.47, the relative viability (SK-LU-1; first compound 0.003162 µM) was 0.455 and the relative viability (SK-LU-1; first compound 0.01 µM) was 0.597. It also gave a relative viability (SK-LU-1; first compound 0.03162 µM) of 0.402 and a relative viability (SK-LU-1; first compound 0.1 µM) of 0.306.
